Laboratory results as given in patent US6346402B1, “(S)-α-phenethylamine: pyruvate transaminase” (Kaneka Corporation, priority 1998, dated 2002).
Entries after “also recorded” stand apart in the source; their conditions may differ.

Tests used:
[1] = test system: (S)-α-phenethylamine:pyruvate transaminase; test: Substrate specificity for amino group donors (dabsylated alanine quantified by HPLC); assay type: biochemical, Pseudomonas sp. KNK425; conditions: for Relative Activity (%): substance as amino group donor, 22.5 mM, 22.5 mM pyruvic acid, pH 7.0, 30° C., 1 hour, (S)-phenethylamine = 100, Table 2
Description: The mixture was reacted at 30° C. for 1 hour, and thereafter immersed in boiling water for 5 minutes, to stop the reaction. The reaction mixture obtained after termination of reaction was diluted five times with 0.2M sodium carbonate buffer, and 0.2 mL of a 10 mM acetone solution of dabsyl chloride was added to 0.1 mL portion of the resulting dilution. The reaction mixture was reacted at 70° C. for 15 minutes, and after cooling, 0.1 mL of 1 N HCl was added. This reaction mixture was analyzed by high-performance liquid chromatography to quantify dabsylated alanine.
(§1) The assay conditions by high-performance liquid chromatography are as follows.
The results thereof, expressed in terms of the relative activity where an activity when using (S)-phenethylamine as an amino group donor is 100, are shown in Table 2.

[2] = test system: (S)-α-phenethylamine:pyruvate transaminase; test: as above; assay type: biochemical, Pseudomonas sp. KNK425; conditions: substance as amino group donor; for Relative Activity (%): Table 1; for Relative Activity (%) of (S)-α-Phenethylamine:Pyruvate Transaminase [Present Invention]: Table 4
[3] = test system: (S)-α-phenethylamine:pyruvate transaminase; test: Substrate specificity for amino group receptors (acetophenone quantified by HPLC); assay type: biochemical, Pseudomonas sp. KNK425
Description: The mixture was reacted at 30° C. for 1 hour. The resulting reaction mixture was analyzed by high-performance liquid chromatography, to quantify acetophenone.
as §1

[4] = test system: 4-aminobutyrate:2-ketoglutarate transaminase; conditions: substance as amino group donor; amino group receptor 2-ketoglutaric acid; Table 4; cited from earlier work
[5] = test system: ω-amino acid:pyruvate transaminase; conditions: substance as amino group donor; amino group receptor pyruvic acid; Table 4; cited from earlier work
[6] = amino group receptor pyruvic acid
[7] = ketone compound as amino group receptor, donor (S)-α-phenethylamine, same manner as Example 5, Table 5
[8] = substance as amino group receptor, 22.5 mM, donor 22.5 mM (S)-α-phenethylamine, pH 7.0, 30° C., 1 hour, pyruvic acid = 100, Table 3
[9] = compound as amino group receptor, donor (S)-α-phenethylamine, same manner as Example 5, Table 6
[10] = amino group receptor 2-ketoglutaric acid

NC(CCC(=O)O)C(=O)O (racemic) [DL-Glutamic Acid]
Activity of the enzyme to the substance as amino group donor (in words) [1]: does not act
Relative Activity (%) [2, 6]: 0%

NCCCCC(N)C(=O)O (racemic) [DL-Lysine]
Activity of the enzyme to the substance as amino group donor (in words) [1]: not exhibiting activity; also recorded: does not act
Relative Activity (%) [2, 6]: 0%

COc1ccc(CC(C)N)cc1OC (stereo not shown) [1-(3,4-Dimethoxyphenyl)-2-aminopropane]
Relative Activity (%) [1]: 18%

CCC(=O)Cc1ccccc1 [1-Phenyl-2-butanone]
Relative Activity (%) [3, 7]: 5%

CC(N)CCc1ccccc1 (stereo not shown) [1-Phenyl-3-aminobutane]
Relative Activity (%) [1]: 80%

CC(=O)c1ccco1 [2-Acetylfuran]
Relative Activity (%) [3, 7]: 3%

CC(=O)c1ccccn1 [2-Acetylpyridine]
Relative Activity (%) [3, 7]: 42%

CC(=O)c1nccs1 [2-Acetylthiazole]
Relative Activity (%) [3, 7]: 4%

CCC(C)N (stereo not shown) [2-Butylamine]
Relative Activity (%) [1]: 1%

CCCCCC(C)N (stereo not shown) [2-Heptylamine]
Relative Activity (%) [1]: 28%

CCCC(=O)C(=O)O [2-Keto-valeric acid]
Relative Activity (%) [3, 8]: 1.5%

CCC(=O)C(=O)O [2-Ketobutyric acid]
Relative Activity (%) [3, 8]: 5.8%

O=C(O)CCC(=O)C(=O)O [2-Ketoglutaric acid]
Activity of the enzyme to the substance as amino group receptor (in words) [3]: did not exhibit an activity; also recorded: does not act
Relative Activity (%) [3, 8]: 0%

CCCCCCC(C)N (stereo not shown) [2-Octylamine]
Relative Activity (%) [1]: 46%

CCCC(C)N (stereo not shown) [2-Pentylamine]
Relative Activity (%) [1]: 4%

CC(=O)c1ccccc1O [2′-Hydroxyacetophenone]
Relative Activity (%) [3, 7]: 24%

CC(=O)c1cccnc1 [3-Acetylpyridine]
Relative Activity (%) [3, 7]: 14%

O=CCCc1ccccc1 [3-Phenylpropionaldehyde]
Relative Activity (%) [3, 9]: 16%

NCCCc1ccccc1 [3-Phenylpropylamine]
Relative Activity (%) [1]: 1%

COc1ccc(CC(C)=O)cc1OC [3′,4′-Dimethoxyphenyl acetone]
Relative Activity (%) [3, 7]: 38%

CC(N)c1cccc(O)c1 (stereo not drawn) [3′-Hydroxy-α-phenethylamine]
Relative Activity (%) [1]: 52%

CC(=O)c1cccc(O)c1 [3′-Hydroxyacetophenone]
Relative Activity (%) [3, 7]: 6%

COc1cccc(C(C)=O)c1 [3′-Methoxyacetophenone]
Relative Activity (%) [3, 7]: 4%

CC(=O)Cc1cccc(C(F)(F)F)c1 [3′-Trifluoromethylphenyl acetone]
Relative Activity (%) [3, 7]: 60%

COc1ccc(CCC(C)=O)cc1 [4-(4′-Methoxyphenyl)-2-butanone]
Relative Activity (%) [3, 7]: 35%

CC(=O)c1ccncc1 [4-Acetylpyridine]
Relative Activity (%) [3, 7]: 8%

NCCCC(=O)O [4-Aminobutyric acid]
Activity of the enzyme to the substance as amino group donor (in words) [1]: does not act
Relative Activity (%) of 4-Aminobutyrate:2-ketoglutarate Transaminase [Derived from Pseudomonas F-126] [4]: 100%
Relative Activity (%) of (S)-α-Phenethylamine:Pyruvate Transaminase [Present Invention] [2, 10]: 0%

CC(=O)c1ccc(Cl)cc1 [4′-Chloroacetophenone]
Relative Activity (%) [3, 7]: 22%

COc1ccc(CC(C)=O)cc1 [4′-Methoxyphenyl acetone]
Relative Activity (%) [3, 7]: 12%

C[C@@H](N)c1ccccc1 [(R)-α-Phenethylamine]
Relative Activity (%) [1]: 3%

C[C@H](N)c1ccccc1 [(S)-α-Phenethylamine]
Activity of the enzyme to the substance as amino group donor (in words) [1]: especially high activity; also recorded: specifically high activity; also recorded: exhibiting activity; also recorded: exhibits high activity
Relative Activity (%) [1]: 100%
Relative Activity (%) [2, 6]: 100%
Relative Activity (%) of (S)-α-Phenethylamine:Pyruvate Transaminase [Present Invention] [2, 6]: 100%

CC(=O)c1cnccn1 [Acetylpyrazine]
Relative Activity (%) [3, 7]: 100%

Cl.N [Ammonium Chloride]
Activity of the enzyme to the substance as amino group donor (in words) [1]: does not also act
Relative Activity (%) [2, 6]: 0%

CCCCCN [Amylamine]
Relative Activity (%) [1]: 5%

CC(=O)CC(=O)c1ccccc1 [Benzoyl acetone]
Relative Activity (%) [3, 7]: 12%

CC(=O)CCc1ccccc1 [Benzyl acetone]
Relative Activity (%) [3, 7]: 70%

NCc1ccccc1 [Benzylamine]
Relative Activity (%) [1]: 13%

NC1CCCCC1 [Cyclohexylamine]
Relative Activity (%) [1]: 1%

NCC(=O)O [Glycine]
Activity of the enzyme to the substance as amino group donor (in words) [1]: does not act
Relative Activity (%) [2, 6]: 0%

O=CC(=O)O [Glyoxylic acid]
Activity of the enzyme to the substance as amino group receptor (in words) [3]: high activity; also recorded: exhibiting activity; also recorded: exhibits activity
Relative Activity (%) [3, 8]: 100%

CC(C)N [Isopropylamine]
Relative Activity (%) [1]: 0%

N[C@@H](CC(=O)O)C(=O)O [L-Aspartic Acid]
Activity of the enzyme to the substance as amino group donor (in words) [1]: does not act
Relative Activity (%) [2, 6]: 0%

COCC(C)=O [Methoxypropanone]
Relative Activity (%) [3, 9]: 5%

CC(=O)COc1ccccc1 [Phenoxy-2-propanone]
Relative Activity (%) [3, 9]: 46%

O=CCc1ccccc1 [Phenylacetaldehyde]
Relative Activity (%) [3, 9]: 37%

NCCCCN [Putrescine]
Activity of the enzyme to the substance as amino group donor (in words) [1]: does not act; also recorded: not exhibiting activity
Relative Activity (%) of ω-Amino acid:Pyruvate Transaminase [Derived from Pseudomonas F-126] [5]: 18%
Relative Activity (%) of 4-Aminobutyrate:2-ketoglutarate Transaminase [Derived from Pseudomonas F-126] [4]: 8%
Relative Activity (%) of (S)-α-Phenethylamine:Pyruvate Transaminase [Present Invention] [2, 10]: 0%
Relative Activity (%) of (S)-α-Phenethylamine:Pyruvate Transaminase [Present Invention] [2, 6]: 0%

CC(=O)C(=O)O [Pyruvic acid]
Activity of the enzyme to the substance as amino group receptor (in words) [3]: high activity; also recorded: exhibiting activity; also recorded: exhibits activity
Relative Activity (%) [3, 9]: 100%
Relative Activity (%) [3, 8]: 100%

NCCS(=O)(=O)O [Taurine]
Activity of the enzyme to the substance as amino group donor (in words) [1]: does not act; also recorded: not exhibiting activity
Relative Activity (%) of ω-Amino acid:Pyruvate Transaminase [Derived from Pseudomonas F-126] [5]: 132%
Relative Activity (%) of (S)-α-Phenethylamine:Pyruvate Transaminase [Present Invention] [2, 6]: 0%

CCCCN [n-Butylamine]
Relative Activity (%) [1]: 2%

CCCN [n-Propylamine]
Relative Activity (%) [1]: 0%

NCCC(=O)O [β-Alanine]
Activity of the enzyme to the substance as amino group donor (in words) [1]: does not act; also recorded: not exhibiting activity
Relative Activity (%) of ω-Amino acid:Pyruvate Transaminase [Derived from Pseudomonas F-126] [5]: 100%
Relative Activity (%) of 4-Aminobutyrate:2-ketoglutarate Transaminase [Derived from Pseudomonas F-126] [4]: 0%
Relative Activity (%) of (S)-α-Phenethylamine:Pyruvate Transaminase [Present Invention] [2, 10]: 0%
Relative Activity (%) of (S)-α-Phenethylamine:Pyruvate Transaminase [Present Invention] [2, 6]: 0%

NCCc1ccccc1 [β-Phenethylamine]
Relative Activity (%) [1]: 23%
